Patent publication US7825160B2, “(Biphenyl) carboxylic acids and derivatives thereof” (Cellzome Limited, priority 2004, dated 2010)

What was measured:
Cyclooxygenase-1 (Cox-1) = molecular target: T1, Cyclooxygenase-1 (Cox-1) (Ovis aries, UniProt P05979); assay: Colorimetric Cox inhibitor screening assay (Cayman), Cox-1; assay type: biochemical
T1 construct: purchased Cayman Chemical Company 760111
T1 sequence (P05979 25-600): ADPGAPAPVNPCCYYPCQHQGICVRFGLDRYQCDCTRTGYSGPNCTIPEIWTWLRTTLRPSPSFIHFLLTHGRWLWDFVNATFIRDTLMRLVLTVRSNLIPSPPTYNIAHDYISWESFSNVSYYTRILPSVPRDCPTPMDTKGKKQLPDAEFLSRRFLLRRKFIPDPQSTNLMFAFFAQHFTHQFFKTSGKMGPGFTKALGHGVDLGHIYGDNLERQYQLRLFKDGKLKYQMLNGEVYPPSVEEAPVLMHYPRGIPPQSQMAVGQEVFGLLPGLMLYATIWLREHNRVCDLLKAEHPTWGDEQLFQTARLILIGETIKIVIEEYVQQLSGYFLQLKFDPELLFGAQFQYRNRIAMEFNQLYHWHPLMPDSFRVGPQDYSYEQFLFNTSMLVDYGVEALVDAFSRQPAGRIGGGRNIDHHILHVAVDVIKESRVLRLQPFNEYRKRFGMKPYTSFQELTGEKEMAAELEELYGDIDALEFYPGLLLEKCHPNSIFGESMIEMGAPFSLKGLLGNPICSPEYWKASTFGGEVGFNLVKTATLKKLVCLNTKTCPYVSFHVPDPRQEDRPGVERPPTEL
Procedure: (§1) Determination of the Effect of the Compounds According to the Invention on Cyclooxygenase-1 and Cyclooxygenase-2 (Cox-1, Cox-2)
(§2) Inhibition of Cox-1 and Cox-2 was determined using the Colorimetric Cox inhibitor screening assay provided by Cayman Chemical Company, Ann Arbor, Mich., USA. (Cat. No. 760111) according to manufacturer's instructions.

Cyclooxygenase-2 (Cox-2) = molecular target: T2, Cyclooxygenase-2 (Cox-2) (Ovis aries, UniProt P79208); assay: Colorimetric Cox inhibitor screening assay (Cayman), Cox-2; assay type: biochemical
T2 construct: purchased Cayman Chemical Company 760111
T2 sequence (P79208 17-603): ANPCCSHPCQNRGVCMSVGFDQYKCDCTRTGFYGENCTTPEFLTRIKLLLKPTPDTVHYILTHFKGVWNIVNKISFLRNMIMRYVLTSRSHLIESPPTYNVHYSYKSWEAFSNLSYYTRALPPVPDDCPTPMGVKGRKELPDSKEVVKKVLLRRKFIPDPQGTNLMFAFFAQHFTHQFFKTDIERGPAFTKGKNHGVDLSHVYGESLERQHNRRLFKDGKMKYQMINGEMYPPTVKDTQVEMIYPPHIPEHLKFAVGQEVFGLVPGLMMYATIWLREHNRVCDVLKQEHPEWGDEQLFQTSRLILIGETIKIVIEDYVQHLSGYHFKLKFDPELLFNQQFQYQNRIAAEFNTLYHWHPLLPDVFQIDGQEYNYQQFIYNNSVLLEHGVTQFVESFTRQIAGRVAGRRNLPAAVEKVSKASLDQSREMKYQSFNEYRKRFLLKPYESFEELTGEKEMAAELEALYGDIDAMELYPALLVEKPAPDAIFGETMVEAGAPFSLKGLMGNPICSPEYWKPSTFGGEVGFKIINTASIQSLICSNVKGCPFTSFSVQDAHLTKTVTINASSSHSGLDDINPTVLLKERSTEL
Procedure: as §1, §2

γ-secretase activity = assay: Screening for γ-secretase-modulating activity in SKN neuroblastoma cells carrying APP swedish mutant; assay type: cell-based; conditions: read-out: IC50 on the γ-secretase activity, Activity range
Procedure: Screening was carried out using SKN neuroblastoma cells carrying the APP-“swedish mutant” (point mutations at position 595 and 596, numbering based on APP695) grown in DMEM/NUT-mix F12 (HAM) provided by Gibco (cat no. 31330-38) containing 5% Serum/Fe supplemented with 1% non-essential amino acids, 100 U/ml Pen/Strep.
Cells were grown to near confluency.
The screening was performed using the assay as described in Citron et al (1997) Nature Medicine 3: 67.
IC50-Values of Selected Compounds of the Invention on the γ-Secretase Activity.

[1] = Demonstration of CNS penetration, brain and plasma levels in mice; assay type: in vivo; conditions: mouse, oral, mice (C57), 100 mg/kg orally, samples at 2, 4 and 8 h, read-out: % ratio of brain to plasma concentration
Procedure: In-vivo Study: A total number of 24 mice (C57) were dosed orally at 100 mg/kg of drug compound in 10% propylene glycol, 7.5% ethanol and 82.5% solutol. At designated times (2, 4 and 8 his), a group of eight mice were sacrificed, and plasma and brain tissue samples were collected by following the NIH guideline.
Bioanalytical: Plasma samples were prepared as follows. Two hundred microliters of acetonitrile containing internal standard was added to 100 μL of plasma to precipitate proteins. After vortexing, samples were centrifuged at 10000 g for 10 min and supernatants were transferred to HPLC sample vials for analysis by LC-MS-MS. Calibration standards were prepared by adding appropriate volumes of drug stock solution directly into blank plasma (from untreated animals) and processed identically to collected plasma samples.
Brain tissues were first homogenized in two-volume of PBS buffer (e.g. 100 mg tissue in 200 μL PBS). Two hundred microliters of acetonitrile containing internal standard was added to 100 μL of tissue homogenants to precipitate proteins. Three replicates were processed for each tissue homogenant. After vortexing, samples were centrifuged at 10000 g for 10 min and supernatants were transferred to HPLC sample vials for analysis by LC-MS-MS. […]

| inhibition at 100 µM (Cyclooxygenase-1 (Cox-1)) [%] | inhibition at 100 µM (Cyclooxygenase-2 (Cox-2)) [%] | IC50 (γ-secretase activity) [µM] | Kp [1] | SMILES |
| --- | --- | --- | --- | --- |
| < 50 | < 50 | 1 to 10 | – | CN(C)S(=O)(=O)c1ccc(COc2cc(CC(=O)O)cc(-c3ccc(C(F)(F)F)cc3)c2)cc1 [XLVI, [5-(4-Dimethylsulfamoyl-benzyloxy)-4′-trifluoromethyl-biphenyl-3-yl]-acetic acid] |
| < 50 | < 50 | 1 to 10 | – | O=C(O)Cc1cc(OCC2CC2)cc(-c2ccc(C(F)(F)F)cc2)c1 [XLII, (5-Cyclopropylmethoxy-4′-trifluoromethyl-biphenyl-3-yl)-acetic acid] |
| < 50 | < 50 | 1 to 10 | – | CCCC(C(=O)O)c1cc(OCc2ccc(S(=O)(=O)N3CCCC3)cc2)cc(-c2ccc(C(F)(F)F)cc2)c1 (centres unmarked) [XXXIX, 2-{5-[4-(Pyrrolidine-1-sulfonyl)-benzyloxy]-4′-trifluoromethyl-biphenyl-3-yl}-pentanoic acid] |
| < 50 | < 50 | 1 to 10 | – | CC(C(=O)O)c1cc(OCc2ccccc2)cc(-c2ccc(C(F)(F)F)cc2)c1 (centres unmarked) [XIX, 2-(5-Benzyloxy-4′-trifluoromethyl-biphenyl-3-yl)-propionic acid] |
| < 50 | < 50 | 1 to 10 | – | O=C(O)Cc1cc(OCc2cc(Cl)cc(Cl)c2)cc(-c2ccc(C(F)(F)F)cc2)c1 [XLIV, [5-(3,5-Dichloro-benzyloxy)-4′-trifluoromethyl-biphenyl-3-yl]-acetic acid] |
| < 50 | < 50 | 1 to 10 | – | CCCC(C(=O)O)c1cc(OCC2CC2)cc(-c2ccc(C(F)(F)F)cc2)c1 (centres unmarked) [XL, 2-(5-Cyclopropylmethoxy-4′-trifluoromethyl-biphenyl-3-yl)-pentanoic acid] |
| < 50 | < 50 | 1 to 10 | – | CC(Oc1cc(CC(=O)O)cc(-c2ccc(C(F)(F)F)cc2)c1)c1ccccc1 (centres unmarked) [XLVII, [5-(1-Phenyl-ethoxy)-4′-trifluoromethyl-biphenyl-3-yl]-acetic acid] |
| < 50 | < 50 | 1 to 10 | – | CC(C)(C(=O)O)c1cc(OCc2ccccc2)cc(-c2ccc(C(F)(F)F)cc2)c1 [XX, 2-(5-Benzyloxy-4′-trifluoromethyl-biphenyl-3-yl)-2-methyl-propionic acid] |
| < 50 | < 50 | 1 to 10 | – | O=C(O)C1(c2cc(OCc3ccccc3)cc(-c3ccc(C(F)(F)F)cc3)c2)CC1 [XXI, 1-(5-Benzyloxy-4′-trifluoromethyl-biphenyl-3-yl)-cyclopropanecarboxylic acid] |
| < 50 | < 50 | 1 to 10 | – | O=C(O)Cc1cc(OCc2ccccc2)cc(-c2ccc(OC(F)(F)F)cc2)c1 [XIII, (5-Benzyloxy-4′-trifluoromethoxy-biphenyl-3-yl)-acetic acid] |

Further lines, the compound ahead of its results:

| SMILES | inhibition at 100 µM (Cyclooxygenase-1 (Cox-1)) [%] | inhibition at 100 µM (Cyclooxygenase-2 (Cox-2)) [%] | IC50 (γ-secretase activity) [µM] | Kp [1] |
| --- | --- | --- | --- | --- |
| O=C(O)Cc1cc(OCC2CCCCC2)cc(-c2ccc(C(F)(F)F)cc2)c1 [V, (5-Cyclohexylmethoxy-4′-trifluoromethyl-biphenyl-3-yl)-acetic acid] | < 50 | < 50 | < 1 | – |
| CCC[C@@H](C(=O)O)c1cc(OCc2ccccc2)cc(-c2ccc(C(F)(F)F)cc2)c1 (single isomer, unassigned) [LXIV] | – | – | – | 0.286 |
| O=C(O)Cc1cc(OCc2ccccc2)cc(-c2cc(Cl)cc(Cl)c2)c1 [IX, (5-Benzyloxy-3′,5′-dichloro-biphenyl-3-yl)-acetic acid] | < 50 | < 50 | 1 to 10 | – |
| CCCC(C(=O)O)c1cc(OCc2ccccc2)cc(-c2ccc(C(F)(F)F)cc2)c1 (centres unmarked) [VIII, 2-(5-Benzyloxy-4′-trifluoromethyl-biphenyl-3-yl)-pentanoic acid] | < 50 | < 50 | < 1 | – |
| O=C(O)Cc1cc(OCc2ccc(C(F)(F)F)cc2)cc(-c2ccc(C(F)(F)F)cc2)c1 [III, [4′-Trifluoromethyl-5-(4-trifluoromethyl-benzyloxy)-biphenyl-3-yl]-acetic acid] | < 50 | < 50 | < 1 | – |
| O=C(O)Cc1cc(OCc2ccc(F)cc2)cc(-c2ccc(C(F)(F)F)cc2)c1 [I, [5-(4-Fluoro-benzyloxy)-4′-trifluoromethyl-biphenyl-3-yl]-acetic acid] | < 50 | < 50 | 1 to 10 | – |
| CCC[C@H](C(=O)O)c1cc(OCc2ccccc2)cc(-c2ccc(C(F)(F)F)cc2)c1 (single isomer, unassigned) [LXV] | – | – | – | 0.32 |
| O=C(O)Cc1cc(OCc2ccccc2)cc(-c2ccc(C(F)(F)F)cc2)c1 [X, (5-Benzyloxy-4′-trifluoromethyl-biphenyl-3-yl)-acetic acid] | < 50 | < 50 | 1 to 10 | – |
| O=C(O)Cc1cc(OCc2ccc(S(=O)(=O)N3CCCC3)cc2)cc(-c2ccc(C(F)(F)F)cc2)c1 [VI, {5-[4-(Pyrrolidine-1-sulfonyl)-benzyloxy]-4′-trifluoromethyl-biphenyl-3-yl}-acetic acid] | < 50 | < 50 | 1 to 10 | – |
